Key:
Assay type in all cases: functional
HL-60 [1] = test: Cell growth-inhibitory activity toward human leukemia cell line HL60 at 10 uM concentration
HL-60 [2] = test: Cell growth-inhibitory activity toward human leukemia cell line HL60 at 6 uM concentration
HL-60 [3] = test: Cell growth-inhibitory activity toward human leukemia cell line HL60 at 3 uM concentration
Sus scrofa = species: Sus scrofa; test: Inhibitory activity against tubulin polymerization at 20 uM

Row | SMILES | inhibition at 10 µM (HL-60 [1]) | inhibition at 6 µM (HL-60 [2]) | inhibition at 3 µM (HL-60 [3]) | Inhibition (Sus scrofa)
1 | O=C1c2cccc(O)c2C(=O)N1c1ccccc1 | ~0% | ~0% | ~0% | 
2 | O=C1c2ccc(O)cc2C(=O)N1c1ccccc1 | 34% | < 5% | ~0% | <10%
3 | Cc1cccc(C)c1N1C(=O)c2cccc(O)c2C1=O | ~0% | ~0% | ~0% | 
4 | CC(C)c1cccc(C(C)C)c1N1C(=O)c2ccc(O)cc2C1=O | ~100% | 72% | 6% | <83%
5 | Cc1cccc(C)c1N1C(=O)c2ccc(O)cc2C1=O | 6% | ~0% | ~0% | <10%
6 | CC(C)c1cccc(C(C)C)c1N1C(=O)c2cccc(O)c2C1=O | 8% | ~0% | ~0% | 7%
7 | CC(C)c1cccc(C(C)C)c1N1C(=O)c2ccccc2C1=O | < 5% | ~0% | ~0% | 7%
8 | Cc1cccc(C)c1N1C(=O)c2ccccc2C1=O | ~0% | ~0% | ~0% | 
9 | CC(C)c1cccc(C(C)C)c1N1C(=O)c2cccc(N)c2C1=O | ~0% | ~0% | ~0% | <10%
10 | CC(C)c1cccc(C(C)C)c1N1C(=O)c2ccc(N)cc2C1=O | 23% | < 5% | ~0% | 81%
11 | CC(C)c1cccc(C(C)C)c1N1C(=O)c2cccc([N+](=O)[O-])c2C1=O | ~0% | ~0% | ~0% | <10%
12 | CC(C)c1cccc(C(C)C)c1N1C(=O)c2ccc([N+](=O)[O-])cc2C1=O | 16% | < 5% | ~0% | <10%
13 | COc1cc2c(c(OC)c1OC)-c1ccc(OC)c(=O)cc1[C@@H](NC(C)=O)CC2 [COLCHICINE] |  |  |  | 78%
14 | O=C1c2ccccc2C(=O)N1c1ccccc1 [N-PHENYL-PHTHALIMIDE] | ~0% | ~0% | ~0% | 
15 | O=C1CCC(N2C(=O)c3ccccc3C2=O)C(=O)N1 (stereo not given) [THALIDOMIDE] |  |  |  | <10%

Reference: ChEMBL document CHEMBL1140361, “Tubulin-polymerization inhibitors derived from thalidomide” (2005)
